Where a name gives a salt, the structure may show the parent alone.
Each molecule was assayed against T1, human orexin-2 (hOX2) receptors (Homo sapiens, UniProt O43614) (assay: Intracellular Ca2+ mobilization assay (FLIPR), antagonism of orexin-A). Conditions: CHO(dHFr-) cells stably expressing hOX2; orexin-A at EC80 as agonist; antagonist applied 25 min before; Kb=IC50/(1+[A]/EC50); read-out: Kb (μM) OX2R (human).
T1 construct: expressed in transfected cells
T1 sequence (O43614 1-444): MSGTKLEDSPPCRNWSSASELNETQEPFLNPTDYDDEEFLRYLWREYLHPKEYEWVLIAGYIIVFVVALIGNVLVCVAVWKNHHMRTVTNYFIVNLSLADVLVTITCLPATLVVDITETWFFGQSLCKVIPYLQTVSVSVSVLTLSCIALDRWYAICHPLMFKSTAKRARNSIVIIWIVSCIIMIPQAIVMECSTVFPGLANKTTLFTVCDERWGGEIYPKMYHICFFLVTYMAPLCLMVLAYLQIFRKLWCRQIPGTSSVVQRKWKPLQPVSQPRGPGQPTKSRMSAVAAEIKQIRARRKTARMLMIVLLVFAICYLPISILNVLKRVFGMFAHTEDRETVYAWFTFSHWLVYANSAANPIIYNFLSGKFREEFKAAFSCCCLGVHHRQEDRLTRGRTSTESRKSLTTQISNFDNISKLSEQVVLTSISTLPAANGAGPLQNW
Assay type: cell-based

Molecule	Kb
Cc1csc(CCN(C(=O)[C@@H](N)c2ccccc2)c2ccc(C)c(C)c2)n1 [Example 67, (S)-2-Amino-N-(3,4-dimethyl-phenyl)-N-[2-(4-methyl-thiazol-2-yl)-ethyl]-2-phenyl-acetamide hydrochloride]	0.073 µM
Cc1cc(N(CCc2ccc(C(F)(F)F)cn2)C(=O)[C@@H](O)c2ccc(F)cc2)ccc1F [Example 81, (S)—N-(4-Fluoro-3-methyl-phenyl)-2-(4-fluoro-phenyl)-2-hydroxy-N-[2-(5-trifluoromethyl-pyridin-2-yl)-ethyl]-acetamide]	0.0197 µM
O=C([C@@H](O)c1ccc(F)cc1)N(CCc1ccc(C(F)(F)F)cn1)c1ccc2c(c1)CCC2 [Example 86, (S)-2-(4-Fluoro-phenyl)-2-hydroxy-N-indan-5-yl-N-[2-(5-trifluoromethyl-pyridin-2-yl)-ethyl]-acetamide]	0.0378 µM
O=C([C@@H](O)c1ccc(F)cc1)N(CCc1ccc(C(F)(F)F)cn1)c1ccc2c(c1)CCO2 [Example 87, (S)—N-(2,3-Dihydro-benzofuran-5-yl)-2-(4-fluoro-phenyl)-2-hydroxy-N-[2-(5-trifluoromethyl-pyridin-2-yl)-ethyl]-acetamide]	0.0198 µM
COc1cc(N(CCc2ccc(C(F)(F)F)cn2)C(=O)[C@@H](O)c2ccc(F)cc2)ccc1F [Example 92, (S)—N-(4-Fluoro-3-methoxy-phenyl)-2-(4-fluoro-phenyl)-2-hydroxy-N-[2-(5-trifluoromethyl-pyridin-2-yl)-ethyl]-acetamide]	0.0146 µM
Cc1n[nH]c2ccc(N(CCc3ccc(C(F)(F)F)nc3)C(=O)[C@@H](O)c3ccc(F)cc3)cc12 [Example 106, (S)-2-(4-Fluoro-phenyl)-2-hydroxy-N-(3-methyl-1H-indazol-5-yl)-N-[2-(6-trifluoromethyl-pyridin-3-yl)-ethyl]-acetamide]	0.0249 µM
(S)-2-Hydroxy-N-(3-methoxy-phenyl)-2-phenyl-N-[2-(6-trifluoromethyl-pyridin-3-yl)-ethyl]-acetamide [Example 58]	0.0167 µM

Next, values leading:

Kb	Molecule
0.0057 µM	Cc1ccc(N(CCc2ccc(Cl)cn2)C(=O)[C@@H](O)c2ccccc2)cc1C [Example 66, (S)—N-[2-(5-Chloro-pyridin-2-yl)-ethyl]-N-(3,4-dimethyl-phenyl)-2-hydroxy-2-phenyl-acetamide]
0.0232 µM	Cc1ccc(N(CCc2ccc(F)cn2)C(=O)[C@@H](O)c2ccccc2)cc1C [Example 68, (S)—N-(3,4-Dimethyl-phenyl)-N-[2-(5-fluoro-pyridin-2-yl)-ethyl]-2-hydroxy-2-phenyl-acetamide]
0.0863 µM	Cc1cc(CCN(C(=O)[C@@H](O)c2ccccc2)c2ccc(C)c(C)c2)on1 [Example 70, (S)—N-(3,4-Dimethyl-phenyl)-2-hydroxy-N-[2-(3-methyl-isoxazol-5-yl)-ethyl]-2-phenyl-acetamide]
0.0289 µM	Cc1ccc(N(CCc2ccc(C(F)(F)F)cn2)C(=O)[C@@H](O)c2ccc(F)cc2)cc1F [Example 80, (S)—N-(3-Fluoro-4-methyl-phenyl)-2-(4-fluoro-phenyl)-2-hydroxy-N-[2-(5-trifluoromethyl-pyridin-2-yl)-ethyl]-acetamide]
0.0046 µM	Cc1nn(C)c2ccc(N(CCc3ccc(C(F)(F)F)nc3)C(=O)[C@@H](O)c3ccc(F)cc3)cc12 [Example 107, (S)—N-(1,3-Dimethyl-1H-indazol-5-yl)-2-(4-fluoro-phenyl)-2-hydroxy-N-[2-(6-trifluoromethyl-pyridin-3-yl)-ethyl]-acetamide]

From US8133909B2 (Hoffmann-La Roche Inc., priority 2008, dated 2012)
